# Measured values from US12448388B2, “PRMT5 inhibitors and uses thereof” (Gilead Sciences, Inc., priority 2023, dated 2025).
# System: HCT116 MTAP-deleted cell lines
# Test: Cell viability assay (CellTiter-Glo, 7 days), HCT116 MTAP-deleted
# Assay type: cell-based
# Details: Homo sapiens, HCT-116; cell viability assay, HCT116 MTAP-deleted; class symbols; read-out: CC50
# Procedure, shortened: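 Each PRMT5 inhibitor was tested as a dose response alongside tool compounds on the same plate. Incubation ran 7 days at 37 °C under 5% CO2, after which CellTiter-Glo luminescence was recorded and CC50 calculated.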
row,Structure (SMILES),CC50 [nM]
1,"Cc1ncc2c(N)nc3cnc(C(=O)N4C[C@@H](F)C[C@@H]5Oc6cc(C(F)(F)F)ccc6[C@@H]54)cc3n12 [Ff-656, (4-amino-1-methylimidazo[1,5-a]pyrido[3,4-e]pyrazin-8-yl)((3S,4aS,9bS)-3-fluoro-7-(trifluoromethyl)-3,4,4a,9b-tetrahydrobenzofuro[3,2-b]pyridin-1(2H)-yl)methanone]",< 100
2,"Cc1ncc2c(N)nc3cc(F)c(C(=O)N4C[C@@H](F)C[C@@H]5Oc6cc(C(F)(F)F)ccc6[C@@H]54)cc3n12 [Ff-657, (4-amino-7-fluoro-1-methylimidazo[1,5-a]quinoxalin-8-yl)((3S,4aS,9bS)-3-fluoro-7-(trifluoromethyl)-3,4,4a,9b-tetrahydrobenzofuro[3,2-b]pyridin-1(2H)-yl)methanone]",< 100
3,"Cc1ncn2c1c(N)nc1cc(F)c(C(=O)N3C[C@@H](F)C[C@@H]4Oc5cc(C(F)(F)F)ccc5[C@@H]43)cc12 [Ff-659, (4-amino-7-fluoro-3-methylimidazo[1,5-a]quinoxalin-8-yl)((3S,4aS,9bS)-3-fluoro-7-(trifluoromethyl)-3,4,4a,9b-tetrahydrobenzofuro[3,2-b]pyridin-1(2H)-yl)methanone]",< 100
4,"Nc1nc2cc(F)c(C(=O)N3C[C@@H](F)C[C@@H]4Oc5cc(OC(F)(F)F)ccc5[C@@H]43)cc2n2cncc12 [Ff-666, (4-amino-7-fluoroimidazo[1,5-a]quinoxalin-8-yl)((3S,4aS,9bS)-3-fluoro-7-(trifluoromethoxy)-3,4,4a,9b-tetrahydrobenzofuro[3,2-b]pyridin-1(2H)-yl)methanone]",< 100
5,"Nc1nc2cc(F)c(C(=O)N3CCC4(CCc5ccccc54)C3)cc2n2cncc12 (stereo not shown) [Ff-670, (4-amino-7-fluoroimidazo[1,5-a]quinoxalin-8-yl)(2,3-dihydrospiro[indene-1,3′-pyrrolidin]-1′-yl)methanone]",100 to 1000
6,"C[C@@H]1C[C@@H](N(C)C(=O)c2cc3c(cc2F)nc(N)c2cncn23)c2ccc(C(F)(F)F)cc21 [Ff-671, 4-amino-7-fluoro-N-methyl-N-((1R,3R)-3-methyl-5-(trifluoromethyl)-2,3-dihydro-1H-inden-1-yl)imidazo[1,5-a]quinoxaline-8-carboxamide]",< 100
7,"CN(C(=O)c1cc2c(cc1F)nc(N)c1cncn12)[C@@H]1COc2c1ccc(OC(F)F)c2F [Ff-672, (S)-4-amino-N-(6-(difluoromethoxy)-7-fluoro-2,3-dihydrobenzofuran-3-yl)-7-fluoro-N-methylimidazo[1,5-a]quinoxaline-8-carboxamide]",< 100
8,"Nc1nc2cc(F)c(C(=O)N3CCC4(CC4)[C@@H]4Oc5cc(C(F)(F)F)ccc5[C@@H]43)cc2n2cncc12 [Ff-676, (4-amino-7-fluoroimidazo[1,5-a]quinoxalin-8-yl)((4aS,9bS)-7-(trifluoromethyl)-2,3,4a,9b-tetrahydro-1H-spiro[benzofuro[3,2-b]pyridine-4,1′-cyclopropan]-1-yl)methanone]",< 100
9,"Nc1nc2cnc(C(=O)N3CCC4(CC4)[C@@H]4Oc5cc(C(F)(F)F)ccc5[C@@H]43)cc2n2cncc12 [Ff-677, (4-aminoimidazo[1,5-a]pyrido[3,4-e]pyrazin-8-yl)((4aS,9bS)-7-(trifluoromethyl)-2,3,4a,9b-tetrahydro-1H-spiro[benzofuro[3,2-b]pyridine-4,1′-cyclopropan]-1-yl)methanone]",< 100
10,"Cc1ncc2c(N)nc3cnc(C(=O)N4CCC5(CC5)[C@@H]5Oc6cc(C(F)(F)F)ccc6[C@@H]54)cc3n12 [Ff-679, (4-amino-1-methylimidazo[1,5-a]pyrido[3,4-e]pyrazin-8-yl)((4aS,9bS)-7-(trifluoromethyl)-2,3,4a,9b-tetrahydro-1H-spiro[benzofuro[3,2-b]pyridine-4,1′-cyclopropan]-1-yl)methanone]",< 100
11,"Cc1ncn2c1c(N)nc1cnc(C(=O)N3CCC[C@@H]4Oc5cc(-c6cnn(C(F)(F)F)c6)ccc5[C@@H]43)cc12 [Ff-683, (4-amino-3-methylimidazo[1,5-a]pyrido[3,4-e]pyrazin-8-yl)((4aS,9bS)-7-(1-(trifluoromethyl)-1H-pyrazol-4-yl)-3,4,4a,9b-tetrahydrobenzofuro[3,2-b]pyridin-1(2H)-yl)methanone]",< 100
12,"C[C@H]1CN(C(=O)c2cc3c(cc2F)nc(N)c2cncn23)[C@H]2c3ccc(C(F)(F)F)c(F)c3C[C@H]2O1 [Ff-690, (4-amino-7-fluoroimidazo[1,5-a]quinoxalin-8-yl)((2S,4aS,9aR)-8-fluoro-2-methyl-7-(trifluoromethyl)-2,3,9,9a-tetrahydroindeno[2,1-b][1,4]oxazin-4(4aH)-yl)methanone]",< 100
13,"Nc1nc2cc(F)c(C(=O)N3CCO[C@@H]4Cc5c(ccc(C(F)(F)F)c5F)[C@@H]43)cc2n2cncc12 [Ff-691, (4-amino-7-fluoroimidazo[1,5-a]quinoxalin-8-yl)((4aS,9aR)-8-fluoro-7-(trifluoromethyl)-2,3,9,9a-tetrahydroindeno[2,1-b][1,4]oxazin-4(4aH)-yl)methanone]",100 to 1000
14,"Cc1ncc2c3cc(C(=O)N(Cc4ccc(C(F)(F)F)cn4)[C@H](C)c4ncccn4)c(F)cc3nc(N)n12 [Fg-17, (R)-5-amino-8-fluoro-3-methyl-N-(1-(pyrimidin-2-yl)ethyl)-N-((5-(trifluoromethyl)pyridin-2-yl)methyl)imidazo[1,5-c]quinazoline-9-carboxamide]",< 100
15,"Cc1ncn2c1c(N)nc1cc(Cl)c(C(=O)N3CCC[C@@H]4Oc5cc(C(F)(F)F)ncc5[C@@H]43)cc12 [Fg-19, (4-amino-7-chloro-3-methylimidazo[1,5-a]quinoxalin-8-yl)((4aS,9bS)-7-(trifluoromethyl)-3,4,4a,9b-tetrahydrofuro[3,2-b:4,5-c′]dipyridin-1(2H)-yl)methanone]",< 100
16,"C[C@@H]1C[C@@H]2Oc3cc(C(F)(F)F)ncc3[C@@H]2N(C(=O)c2cc3c(cc2F)nc(N)c2cncn23)C1 [Fg-20, (4-amino-7-fluoroimidazo[1,5-a]quinoxalin-8-yl)((3R,4aS,9bS)-3-methyl-7-(trifluoromethyl)-3,4,4a,9b-tetrahydrofuro[3,2-b:4,5-c′]dipyridin-1(2H)-yl)methanone]",< 100
17,"Cc1ncn2c1c(N)nc1cc(F)c(C(=O)N3C[C@H](C)C[C@@H]4Oc5cc(C(F)(F)F)ncc5[C@@H]43)cc12 [Fg-21, (4-amino-7-fluoro-3-methylimidazo[1,5-a]quinoxalin-8-yl)((3R,4aS,9bS)-3-methyl-7-(trifluoromethyl)-3,4,4a,9b-tetrahydrofuro[3,2-b:4,5-c′]dipyridin-1(2H)-yl)methanone]",< 100
18,"Nc1nc2cc(F)c(C(=O)N3CCO[C@@H]4Cc5cc(OC(F)F)ccc5[C@@H]43)cc2n2cncc12 [Fg-24, (4-amino-7-fluoroimidazo[1,5-a]quinoxalin-8-yl)((4aS,9aR)-7-(difluoromethoxy)-2,3,9,9a-tetrahydroindeno[2,1-b][1,4]oxazin-4(4aH)-yl)methanone]",< 100
19,"Nc1nc2cc(F)c(C(=O)N3CCC[C@@H]4Oc5cc(F)ccc5[C@@H]43)cc2n2cncc12 [Fg-25, (4-amino-7-fluoroimidazo[1,5-a]quinoxalin-8-yl)((4aS,9bS)-7-fluoro-3,4,4a,9b-tetrahydrobenzofuro[3,2-b]pyridin-1(2H)-yl)methanone]",< 100
